# Counter-ions that a name gives are not always drawn. Like-named read-outs stand apart in the source and are kept apart here.
# Tests used:
# human Y5 receptor [1] = target: T1, human Y5 receptor (Homo sapiens, UniProt Q15761); test: Radioligand binding to membranes, cloned human Y5 receptor
# T1 construct: expressed in transfected cells; host or cells: mouse fibroblast LM(tk-) cells, e.g. L-hY5-7 (ATCC CRL-11995)
# T1 sequence (Q15761 1-445): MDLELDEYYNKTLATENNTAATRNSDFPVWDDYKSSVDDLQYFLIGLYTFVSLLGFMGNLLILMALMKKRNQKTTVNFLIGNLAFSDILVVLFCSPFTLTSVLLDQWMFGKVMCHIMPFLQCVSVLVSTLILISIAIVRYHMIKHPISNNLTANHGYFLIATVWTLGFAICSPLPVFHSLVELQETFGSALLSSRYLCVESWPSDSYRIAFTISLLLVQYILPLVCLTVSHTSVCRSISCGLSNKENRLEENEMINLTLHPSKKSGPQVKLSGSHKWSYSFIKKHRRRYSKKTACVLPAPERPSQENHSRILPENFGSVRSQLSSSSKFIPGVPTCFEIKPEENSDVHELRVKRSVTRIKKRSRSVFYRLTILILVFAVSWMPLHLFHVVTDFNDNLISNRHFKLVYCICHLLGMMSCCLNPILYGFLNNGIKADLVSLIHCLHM
# Description: Binding of the compounds of the present invention to human Y1, Y2, Y4, and Y5 receptors was evaluated using stably transfected 293 or LM(tk-) cells as described above.
# Membranes were harvested from COS-7 cells 48 hours after transient transfection. Adherent cells were washed twice in ice-cold phosphate buffered saline (138 mM NaCl, 8.1 mM Na2HPO4, 2.5 mM KCl, 1.2 mM KH2PO4, 0.9 mM CaCl2, 0.5 mM MgCl2, pH 7.4) and lysed by sonication in ice-cold sonication buffer (20 mM Tris-HCl, 5 mM EDTA, pH 7.7). Large particles and debris were cleared by low speed centrifugation (200×g, 5 min, 4° C.). Membranes were collected from the supernatant fraction by centrifugation (32,000×g, 18 min, 4° C.), washed with ice-cold hypotonic buffer, and collected again by centrifugation (32,000×g, 18 min, 4° C.). The final membrane pellet was resuspended by sonication into a small volume of ice-cold binding buffer (˜1 ml for every 5 plates: 10 mM NaCl, 20 mM HEPES, 0.22 mM KH2PO4, 1.26 mM CaCl2, 0.81 mM MgSO4, pH 7.4). Protein concentration was measured by the Bradford method (Bradford, 1976) using Bio-Rad Reagent, with bovine serum albumin as a standard. Membranes were held on ice for up to one hour and used fresh, or flash-frozen and stored in liquid nitrogen.
# Membranes were prepared similarly from 293, LM(tk-), and NIH-3T3 cells.
# Membrane suspensions were diluted in binding buffer supplemented with 0.1% bovine serum albumin to yield an optimal membrane protein concentration so that ^125I-PYY (or alternative radioligand such as ^125I-NPY, ^125I-NYY3-36, or ^125I-[Leu^31Pro^34]PYY) bound by membranes in the assay was less than 10% of ^125I-PYY (or alternative radioligand) delivered to the sample (100,000 dpm/sample=0.08 nM for competition binding assays). ^125I-PYY (or alternative radioligand) and peptide competitors were also diluted to desired concentrations in supplemented binding buffer. Individual samples were then prepared in 96-well polypropylene microtiter plates by mixing ^125I-PYY (25 μL) (or alternative radioligand), competing peptides or supplemented binding buffer (25 μL), and finally, membrane suspensions (200 μL). Samples were incubated in a 30° C. water bath with constant shaking for 120 min. Incubations were terminated by filtration over Whatman GF/C filters (pre-coated with 1% polyethyleneimine and air-dried before use), followed by washing with 5 mL of ice-cold binding buffer. Filter-trapped membranes were impregnated with MeltiLex solid scintillant (Wallac, Turku, Finland) and counted for ^125I in a Wallac Beta-Plate Reader. Alternatively, incubations were carried out in GF/C filter plates (pre-coated with 1% polyethyleneimine and air-dried before use), followed by vacuum filtration and three washes of 300 μL of ice-cold binding buffer. 50 μL of UltimaGold (Packard) scintillant were added and counted for ^125I, in a Wallac MicroBeta Trilux. Non-specific binding was defined by 300 nM human NPY for all receptors except the Y4 subtypes; 100 nM human PP was used for the human Y4 and 100 nM rat PP for the rat Y4.
# human Y5 receptor [2] = target: T1, human Y5 receptor; test: Functional assay: radioimmunoassay of cAMP in stably transfected cells; format: cell-based; settings: Functional Antagonism Data, Table 7
# Description: LM(tk-) cells stably transfected with the human Y5 receptor were routinely converted from an adherent monolayer to a viable suspension. Adherent cells were harvested with trypsin at the point of confluence, resuspended in a minimal volume of complete DMEM for a cell count, and further diluted to a concentration of 10^6 cells/ml in suspension media (10% bovine calf serum, 10% 10× Medium 199 (Gibco), 9 mM NaHCO3, 25 mM glucose, 2 mM L-glutamine, 100 units/ml penicillin/100 μg/ml streptomycin, and 0.05% methyl cellulose). The cell suspension was maintained in a shaking incubator at 37° C., 5% CO2 for 24 hours. Membranes harvested from cells grown in this manner may be stored as large, uniform batches in liquid nitrogen. Alternatively, cells may be returned to adherent cell culture in complete DMEM by distribution into 96-well microtiter plates coated with poly-D-lysine (0.01 mg/ml) followed by incubation at 37° C., 5% CO2 for 24 hours.
# Stably transfected cells were seeded into 96-well microtiter plates and cultured until confluent. […] Cells were washed in […] buffered saline, or HBS (150 mM NaCl, 20 mM HEPES, 1 mM CaCl2, 5 mM KCl, 1 mM MgCl2, and 10 mM glucose) supplemented with 0.1% bovine serum albumin plus 5 mM theophylline and pre-equilibrated in the same solution for 20 min at 37° C. in 5% CO2. Cells were then incubated 5 min with 10 μM forskolin and various concentrations of receptor-selective ligands. The assay was terminated by the removal of HBS and acidification of the cells with 100 mM HCl. Intracellular cAMP was extracted and quantified with a modified version of a magnetic bead-based radioimmunoassay (Advanced Magnetics, Cambridge, Mass.). The final antigen/antibody complex was separated from free ^125I-cAMP by vacuum filtration through a PVDF filter in a microtiter plate (Millipore, Bedford, Mass.). Filters were punched and counted for ^125I, in a Packard gamma counter.
# [3] = Table 6, read-out: Ki, nM hNPY-5
SMILES,melting point [°C],also measured
"O=S(=O)(NCCCCCNc1nc(-c2cccnc2)cs1)c1ccccc1F (as salt: chloride) [Example 70, 2-(5-(2-Fluorophenyl)sulfonylamino)pentylamino-4-(3-pyridyl)thiazole hydrogen chloride]",84 to 85,
"Cc1noc(C)c1S(=O)(=O)NCCCCCNc1nc(-c2cccnc2)cs1 (as salt: chloride) [Example 71, 2-(5-(3,5-Dimethylisoxazol-4-yl)sulfonylamino)pentylamino-4-(3-pyridyl)thiazole hydrogen chloride]",114 to 115,
"COc1ccc(C)cc1S(=O)(=O)NCCCCCNc1nc(-c2cccnc2)cs1 (as salt: chloride) [Example 72, 2-(5-(2-Methoxy-5-methyl)phenylsulfonylamino)pentylamino-4-(3-pyridyl)thiazole hydrogen chloride]",119 to 120,
"O=S(=O)(NCCCCCNc1nc(-c2ccncc2)cs1)c1ccccc1F (as salt: chloride) [Example 73, 2-(5-(2-Fluoro)phenylsulfonylamino)pentylamino-4-(4-pyridyl)thiazole hydrogen chloride]",97 to 98,
"Cc1noc(C)c1S(=O)(=O)NCCCCCNc1nc(-c2ccncc2)cs1 (as salt: chloride) [Example 74, 2-(5-(3,5-Dimethylisoxazol-4-yl)sulfonylamino)pentylamino-4-(4-pyridyl)thiazole hydrogen chloride]",108 to 109,
"COc1ccc(C)cc1S(=O)(=O)NCCCCCNc1nc(-c2ccncc2)cs1 (as salt: chloride) [Example 75, 2-(5-(2-Methoxy-5-methyl)phenylsulfonylamino)pentylamino-4-(4-pyridyl)thiazole hydrogen chloride]",116 to 117,
"COc1ccc(C)cc1S(=O)(=O)N[C@H]1CC[C@H](CNc2nc(-c3ccccn3)cs2)CC1 (as salt: chloride) [Example 83, trans-2-(4-(2-Methoxy-5-methylphenyl)sulfonylamino)-cyclohexylmethylamino-4-(2-pyridyl)thiazole dihydrogen chloride]",111 to 113,
"Cc1noc(C)c1S(=O)(=O)N[C@H]1CC[C@H](CNc2nc(-c3ccccn3)cs2)CC1 (as salt: chloride) [Example 85, trans-2-(4-(3,5-Dimethyl-4-isoxazolyl)sulfonylamino)-cyclohexylmethylamino-4-(2-pyridyl)thiazole dihydrogen chloride]",98 to 101,
"O=S(=O)(N[C@H]1CC[C@H](CNc2nc(-c3cccnc3)cs2)CC1)c1ccccc1F (as salt: chloride) [Example 86, trans-2-(4-(2-Fluorophenyl)sulfonylamino)cyclohexylmethyl-amino-4-(3-pyridyl)thiazole dihydrogen chloride]",141 to 142,
"CNc1nc(NCC2CCC(CNS(=O)(=O)c3cccc4ccccc34)CC2)nc(NC(C)C)n1 (centres unmarked) [Example 1, N1-{[4-({[4-(Isopropylamino)-6-(methylamino)-1,3,5-triazin-2-yl]amino}methyl)cyclohexyl]methyl}-1-naphthalenesulfonamide]",,"Ki (human Y5 receptor [1]; Table 1, read-out: Ki (nM) hNPY-5): 13 nM; Kb (human Y5 receptor [2]): 200 nM"
"CCNc1nc(NCC)nc(NCC2CCC(CNS(=O)(=O)c3cccs3)CC2)n1 (centres unmarked) [Example 37, N2-[4-([4,6-di(ethylamino)-1,3,5-triazin-2-yl]aminomethyl)cyclohexyl]methyl-2-thiophenesulfonamide]",,"Ki (human Y5 receptor [1]; Table 2, read-out: Ki (nM) hNPY-5): 55 nM; Kb (human Y5 receptor [2]): 158 nM"
"Cc1nc(-c2csc(N[C@H]3CC[C@H](CNS(=O)(=O)N(C)C)CC3)n2)c(C)s1 [Example 98, trans-N′-[(4-[4-(2,5-dimethyl-1,3-thiazol-4-yl)-1,3-thiazol-2-yl]aminocyclohexyl)methyl]-N,N-dimethylsulfamide]",,"Ki (human Y5 receptor [1]; Table 5, read-out: Ki, nM hNPY-5): 1.5 nM; Kb (human Y5 receptor [2]): 3.98 nM"
"CS(=O)(=O)NC[C@H]1CC[C@H](Nc2nc3c(s2)CCSc2ccccc2-3)CC1 [Example 104, N-{[4-(4,5-Dihydrobenzo[2,3]thiepino[4,5-d][1,3]thiazol-2-ylamino)cyclohexyl]methyl}-methanesulfonamide]",,Ki (human Y5 receptor [1]; [3]): 6.8 nM; Kb (human Y5 receptor [2]): 2.51 nM
"O=S(=O)(NC[C@H]1CC[C@H](Nc2nc3c(s2)CCSc2ccccc2-3)CC1)c1cccc2cccnc12 [Example 157, N8-{[4-(4,5-Dihydrobenzo[2,3]thiepino[4,5-d][1,3]thiazol-2-ylamino)cyclohexyl]methyl}-8-quinolinesulfonamide]",,Ki (human Y5 receptor [1]; [3]): 5.7 nM; Kb (human Y5 receptor [2]): 20 nM

# Continued, in another order:
melting point [°C],SMILES,also measured
54 to 57,"COc1ccc(S(=O)(=O)NCCCCCNc2nc(-c3ccccn3)cs2)cc1 (as salt: chloride) [Example 62, 2-(5-(4-Methoxyphenyl)sulfonylamino)pentylamino-4-(2-pyridyl)thiazole hydrogen chloride]",
65 to 68,"O=S(=O)(NCCCCCNc1nc(-c2ccccn2)cs1)c1ccc(F)c(F)c1 (as salt: chloride) [Example 64, 2-(5-(3,4-Difluorophenyl)sulfonylamino)pentylamino-4-(2-pyridyl)thiazole hydrogen chloride]",
155 to 156,"COc1ccc(C)cc1S(=O)(=O)NCCCCCNc1nc(-c2ccccn2)cs1 (as salt: chloride) [Example 65, 2-(5-(2-Methoxy-5-methylphenyl)sulfonylamino)pentylamino-4-(2-pyridyl)thiazole hydrogen chloride]",
62 to 64,"O=S(=O)(Cc1ccccc1)NCCCCCNc1nc(-c2ccccn2)cs1 (as salt: chloride) [Example 66, 2-(5-(Benzylsulfonylamino)pentylamino-4-(2-pyridyl)thiazole hydrogen chloride]",
49 to 51,"CCS(=O)(=O)NCCCCCNc1nc(-c2ccccn2)cs1 (as salt: chloride) [Example 67, 2-(5-(Ethylsulfonylamino)pentyl)amino-4-(2-pyridyl)thiazole hydrogen chloride]",
63 to 65,"O=S(=O)(NCCCCCNc1nc(-c2ccccn2)cs1)C(F)(F)F (as salt: chloride) [Example 68, 2-(5-(Trifluoromethylsulfonylamino)pentyl)amino-4-(2-pyridyl)thiazole hydrogen chloride]",
68 to 70,"NS(=O)(=O)NCCCCCNc1nc(-c2ccccn2)cs1 (as salt: chloride) [Example 69, 2-(5-(Aminosulfonylamino)pentyl)amino-4-(2-pyridyl)thiazole hydrogen chloride]",
